Source: patent US4300557A, “Method for treating intraocular malignancies” (The United States of America as represented by the …, priority 1980, dated 1981)
Where “and” joins values, the source holds several entries; their conditions need not be identical. Identical values can stand only once. Like-named read-outs stand apart in the source and are kept apart here.

Columns and labels:
[1] = system: Brown-Pearce epithelioma; experiment: In vivo testing in rabbits with intracameral Brown-Pearce epithelioma, clinical results; parameters: species or system New Zealand female albino rabbits; reduction in tumor growth: dose or concentration left out as unconfirmed; settings: for Day Tumor Destroyed Whole Eye, Treated Eye: * eye not yet destroyed by day of enucleation
Source text: (§1) Preoperative examination of 28 eyes in 14 New Zealand femal albino rabbits weighing 2.0 to 2.5 kg included biomicroscopy, tonotometry, and indirect ophthalmoscopy. All animals had normal eyes. Both eyes of each animal were inoculated intracamerally with Brown-Pearce epithelioma tissue by the technique at 993 of Liu et al., Invest. Ophthalmol Visual Sci., Vol. 17 (1978).
Three days after tumor tissue implantation, a silicone device described in Example 1 was implanted episclerally in each eye. Animals were anesthetized with sodium pentobarbital 24 mg/kg body weight administered intravenously. After routine preparation of the rabbit and the eyes, a pocket beneath the conjunctiva and Tenon's capsule was made in the upper temporal quadrant of the eye. The silicone device was inserted into the pocket but the small tube remained accessible to permit injection of test substance. Two 7-0 silk sutures were applied on both shoulders of the silicone device and on the episcleral tissue at the pars plana to hold the device in position. The conjunctiva was closed with two 7-0 silk sutures. […] 5. The injecting tube was fixed on the upper fornix.
Seven animals (Group 1A) received 3.0 mg of BCNU in 0.15 ml of sesame oil in one eye on the third, sixth, and ninth days after tumor implantation (total dose 9.0 mg). Three animals (Group 1B) received 12.0 mg of BCNU in 0.15 ml of sesame oil on the same schedule (total dose 36.0/mg). […] The fellow eyes served as controls and received diluent only.
(§2) Ocular examinations were made on alternate days during the 20 days following tumor implantation; at that time all eyes were enucleated. The effectiveness of treatment was measured by (1) comparing the extent of tumor growth in the anterior chamber of treated and control eyes, (2) noting the occurrence of distortion and perforation of the globe due to tumor growth, (3) weighing all eyes following enucleation, and (4) comparing the histopathologic changes in the eyes.
Clinical results, tabulated below, indicate the day on which the tumor occupied the anterior chamber and the weight of the enucleated eyes. The first day was the day on which tumor tissue was implanted.

[2] = system: Brown-Pearce epithelioma; experiment: Histopathological observations of enucleated rabbit eyes with Brown-Pearce epithelioma; format: in vivo, New Zealand female albino rabbits
Source text: as §1
Three days after tumor tissue implantation, a silicone device described in Example 1 was implanted episclerally in each eye. Animals were anesthetized with sodium pentobarbital 24 mg/kg body weight administered intravenously. After routine preparation of the rabbit and the eyes, a pocket beneath the conjunctiva and Tenon's capsule was made in the upper temporal quadrant of the eye. The silicone device was inserted into the pocket but the small tube remained accessible to permit injection of test substance. Two 7-0 silk sutures were applied on both shoulders of the silicone device and on the episcleral tissue at the pars plana to hold the device in position. The conjunctiva was closed with two 7-0 silk sutures. Then 0.15 ml of the BCNU solution or the diluent (control) was injected into the device with a tuberculin syringe and a 30-gauge needle through the tube which was outside the closed conjunctiva as shown in FIG. 5. The injecting tube was fixed on the upper fornix.
Seven animals (Group 1A) received 3.0 mg of BCNU in 0.15 ml of sesame oil in one eye on the third, sixth, and ninth days after tumor implantation (total dose 9.0 mg). Three animals (Group 1B) received 12.0 mg of BCNU in 0.15 ml of sesame oil on the same schedule (total dose 36.0/mg). Four animals (Group II) received 13.0 mg of BCNU in pure ethanol on the third and sixth days after tumor implantation (total dose 26.0 mg). The fellow eyes served as controls and received diluent only.
as §2
The enucleated eyes were fixed in 10% buffered formalin in preparation for histopathological examination. A sagittal section on either side of the optic nerve was made. Pupil-optic nerve sections and the two calottes were processed routinely for histologic evaluation, using hematoxyline and eosin (H&E) stain. The eyes were imbedded in paraffin and cut in sections 6μ thick for light microscopy. Every fifth section was stained. About 50 sections from each eye were examined.

[3] = ethanol in silicone rubber capsule, Schmidt et al.; cited from earlier work
[4] = Stability of BCNU in aqueous solution (absorbance at 232 nm); format: physicochemical
Source text: The decomposition of BCNU in water and in 1% aqueous ethanol was followed by measuring the characteristic BCNU absorbance maximum at 232 nm, using a Beckman DK-2A spectrophotometer. A second maximum that appeared at 190 nm and increased during decomposition was not a reliable indicator of the drug's breakdown.

[5] = Group IA: 3.0 mg BCNU in sesame oil, days 3, 6 and 9
[6] = Group IB: 12.0 mg BCNU in sesame oil, days 3, 6 and 9
[7] = Group II: 13.0 mg BCNU in pure ethanol, days 3 and 6

## O=NN(CCCl)C(=O)NCCCl [BCNU, 1,3-bis-(2-chloroethyl)-1-nitrosourea]
[1]; 3.0 or 12.0 mg BCNU in 0.15 ml sesame oil, days 3, 6 and 9
  reduction of tumor growth: Significant reduction of tumor growth
[1]; BCNU in absolute ethanol, silicone balloons 0.1-0.2 mm wall
  therapeutic results: good therapeutic results
[1]; Group I (IA and IB), sesame oil, 10 treated eyes
  Aver. wt of eyes after enucleation, treated eye: 5.2 g
[1]; Group I, BCNU in sesame oil
  growth of the implanted tumor tissue in the anterior chamber: slowed in all 10 eyes
[1]; Group IA, 3.0 mg in sesame oil
  Aver. wt of eyes after enucleation, treated eye: 5.7 g
[1]; Group IA, three doses of 3.0 mg in sesame oil, 15 days after tumor implantation
  eyes retaining normal shape and size without distortion for 15 days: six eyes of the seven
[1]; [5]
  Day Tumor Occupied Anterior Chamber, Treated Eye: 13 days and 14 days and 12 days and 18 days
  Day Tumor Destroyed Whole Eye, Treated Eye: 18 days and 19 days and 17 days and 16 days and > 18 days and 15 days
[1]; Group IB, 12.0 mg in sesame oil
  Aver. wt of eyes after enucleation, treated eye: 4.1 g
[1]; Group IB, three doses of 12.0 mg in sesame oil, 19 days after tumor implantation
  eyes retaining normal shape and size without distortion for 19 days: Two eyes of the three
[1]; [6]
  Day Tumor Occupied Anterior Chamber, Treated Eye: 20 days and 17 days and 11 days
  Weight of Eyes After Enucleation, Treated Eye: 3.5 g and 5.2 g
  Day Tumor Destroyed Whole Eye, Treated Eye: > 20 days and 20 days and 17 days
[1]; Group II, BCNU in pure ethanol
  average weight of the four treated eyes after enucleation: 3.1 gm
  response of treated eyes: Each of the four eyes treated showed good response
[1]; Group II, BCNU in pure ethanol, day 15
  tumor tissue growth in the anterior chamber on the fifteenth day: almost completely arrested in three of the four treated eyes
[1]; Group II, BCNU in pure ethanol, day 20
  eyes retaining normal shape and size on the twentieth day: all four treated eyes retained their normal shape and size
[1]; Group II, pure ethanol
  Aver. wt of eyes after enucleation, treated eye: 3.1 g
[1]; [7]
  Day Tumor Occupied Anterior Chamber, Treated Eye: 18 days and 15 days and 20 days
  Weight of Eyes After Enucleation, Treated Eye: 2.8 g and 3.2 g and 3.3 g
  Day Tumor Destroyed Whole Eye, Treated Eye: > 20 days and > 29 days
[1]; absolute ethanol (so in the source), days 3 and 6
  reduction in tumor growth: greatest reduction in tumor growth
[1]; all eyes (Groups I and II)
  Aver. wt. of eyes after enucleation, treated eye: 4.6 g
[2]; Group I, BCNU in sesame oil
  infiltration and extrascleral extension, histology: The inner scleral and corneal lamellae were infiltrated with tumor; no extrascleral extension was noted
  mitotic index: remained high
  necrosis: necrosis was prominent
  tumor extent, histology: Tumor growth tended to be limited to the anterior segment, but in some instances replaced the iris and ciliary body
[2]; Group II, BCNU in pure ethanol
  intraocular architecture and invasion of the cornea or sclera: Normal intraocular architecture was maintained, with no evidence of invasion of the cornea or sclera
  mitotic index: 6 to 8 per high power field
  necrosis versus control eyes: less prominent than in control eyes
  reduction of tumor growth, histology: most significant reduction of tumor growth
  tumor extent, histology: Only small foci of tumor, limited to the anterior segment
  tumor nodules in iris and ciliary body, histology: small nodules of tumor were found in the iris stroma and iris root with occasional involvement of the ciliary body
[2]; total 9.0 mg versus total 36.0 mg BCNU in sesame oil
  histological difference between Group IA and Group IB eyes: no observable difference histologically
[3]
  decrease in BCNU concentration in the dialysate: rapid decrease in BCNU concentration in the dialysate
[4]; 1% ethanol, 1% ethanol solution, of the order of, read-out: Decomposition of BCNU in 1% ethanol solution
  half-life: ~4.1 h
[4]; 1% ethanol, 37° C., read-out: half-life of BCNU in 1% ethanol
  half-life: 4.1 h
[4]; water, 37° C., read-out: half-life of BCNU in water
  half-life: 3.83 h
